Test results reported in patent US20120252784A1, “2,3,4-BENZOTHIADIAZEPINE-2,2-DIOXIDE DERIVATIVES” (priority 2009, published 2012).

System: taurine
Assay: Changes in amino acid neurotransmitter levels in the cortical area of male rats (HPLC, electrochemical detection)
Type: in vivo, rat
Details: male SPDR rats, intraperitoneal, 0.4% aqueous methylcellulose suspension, decapitated 30 minutes after administration, compared to vehicle control group
Protocol: The in vivo biological effectiveness of the compounds of the present invention on the central nervous system was examined by the following experimental model.
Changes in Amino Acid Neurotransmitter Levels in the Cortical Area of Male Rats
Male SPDR rats weighing 200-250 g, were used in the experiments. Changes in the concentration of amino acid neurotransmitters were measured from cortical areas by high-performance liquid chromatography (HPLC) and electrochemical detection.
The investigations were carried out with two experimental groups wherein each group contained 8 animals. One group was administered intraperitoneally by vehicle only (control group). The other group was administered intraperitoneally by the compound of the Example 15, suspended in vehicle. The dose of administration was in the form of 0.4% aqueous methylcellulose suspension.
The animals were decapitated 30 minutes after the administration, brains have been removed and required brain regions were dissected. The tissues were stored at −70° C.
The tissues were homogenized in ice-cold 0.1 M perchlorate in 500 volume excess. […]
The tissue concentrations of the amino acids were measured by standard solutions containing amino acids with known concentration.

CN1N=C(c2ccc(F)cc2)c2cc(Cl)ccc2CS1(=O)=O [Example 16, 7-Chloro-5-(4-fluoro-phenyl)-3-methyl-1,3-dihydro-2̂,4-benzothiadiazepin-2,2-dioxide] was tested, and the “concentrations of the amino acid taurine in the frontal cortex” value was “significantly increased”.
